Measurements from patent US20240252456A1, “ORAL COMPOSITION, SKIN COSMETIC AND HAIR COSMETIC” (MARUZEN PHARMACEUTICALS CO., LTD., priority 2021, published 2024).

How the values were obtained:
TGM1 mRNA = assay: Transglutaminase-1 (TGM1) mRNA expression promotive action test; assay type: cell-based, human; conditions: NHEK, 24 hours, A/B×100, corrected with GAPDH
Method: Normal human neonatal epidermal keratinocytes (NHEK) were precultured using normal human epidermal keratinocyte growth medium (KGM), and the cells were collected by a trypsin treatment. The collected cells were diluted with KGM to a cell density of 15×10^4 cells/mL, then seeded with 2 mL portions in a 6-well plate (30×10^4 cells/well), and cultured overnight under conditions of 37° C. and 5% CO2. After culturing, the medium was replaced with normal human epidermal keratinocyte basal medium (KBM, the above KGM without addition of growth additives (hEGF, BPE, insulin, antibacterial agents, hydrocortisone)), and culturing was further performed for 24 hours.
After culturing for 24 hours, the medium was removed, and 2 mL of each of test samples (Samples 1 to 3, see Table 15 below for final concentrations) dissolved in KBM was added to each well, and culturing was performed under conditions of 37° C. and 5% CO2 for 24 hours. As a control, culturing was performed in the same manner using KBM to which no sample was added. After culturing, the medium was removed, total RNA was extracted using ISOGEN II (available from NIPPON GENE CO., LTD.), each RNA amount was measured using a spectrophotometer, and the total RNA was prepared so as to be 150 ng/μL.
For TGM1 and GAPDH as an internal standard, the expression levels of mRNA were measured using the above total RNA as a template. Detection was performed through a two-step real-time RT-PCR reaction using a real-time PCR device, Thermal Cycler Dice Real Time System III (available from Takara Bio Inc.), with PrimeScript™ RT Master Mix (Perfect Real Time) (available from Takara Bio Inc.) and TB Green® Fast qPCR Mix (available from Takara Bio Inc.). The primers used were those having the sequences 5′-[…]-3′ and 5′-[…]-3′.
The expression level of TGM1 mRNA was obtained as a value corrected with a value of GAPDH based on total RNA preparations prepared from cells cultured “with test sample addition” and “without sample addition.” From the obtained values, the TGM1 mRNA expression promotion rate (%) was calculated using the following equation.
TGM1 mRNA expression promotion rate (%)=A/B×100
Terms in the equation represent the following respective ones. • A: Corrected value with test sample addition • B: Corrected value without sample addition

elastase type III = molecular target: T1, elastase type III (Sus scrofa, UniProt P00772); assay: Elastase activity inhibitory action test; assay type: biochemical; conditions: read-out: Elastase activity inhibition rate; for inhibition at 1000 µM: 1000 μmol/L
T1 construct: purchased SIGMA-Aldrich type III
T1 sequence (P00772 27-266): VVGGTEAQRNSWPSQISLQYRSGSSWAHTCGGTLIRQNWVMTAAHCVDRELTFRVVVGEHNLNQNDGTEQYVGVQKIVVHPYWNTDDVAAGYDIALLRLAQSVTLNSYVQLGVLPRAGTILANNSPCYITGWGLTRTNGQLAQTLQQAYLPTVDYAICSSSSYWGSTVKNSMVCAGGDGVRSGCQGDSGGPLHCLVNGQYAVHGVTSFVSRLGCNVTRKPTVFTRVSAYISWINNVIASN
Method: In a 96-well microplate, 50 μL of each of test samples (Samples 1 to 3, see Table 8 below for final concentrations) prepared with 0.2 mol/L Tris-HCl buffer solution (pH 8.0) and 50 μL of 20 μg/mL elastase type III (available from SIGMA-Aldrich) solution was mixed. After that, 100 μL of 0.4514 mg/mL N-succinyl-Ala-Ala-Ala-p-nitroanilide (available from SIGMA-Aldrich) prepared with the above buffer solution was added, and the mixture was reacted at 25° C. for 15 minutes. After the reaction was completed, the absorbance at a wavelength of 415 nm was measured. In addition, a blank test without enzyme addition was performed in the same manner and correction was made. From the obtained results, the elastase activity inhibition rate (%) was calculated using the following equation.
Terms in the equation represent the following respective ones. • A: Absorbance at wavelength 415 nm without sample addition and with enzyme addition • B: Absorbance at wavelength 415 nm without sample addition and without enzyme addition • C: Absorbance at wavelength 415 nm with test sample addition and with enzyme addition • D: Absorbance at wavelength 415 nm with test sample addition and without enzyme addition

Structure (SMILES) | TGM1 mRNA expression promotion rate (TGM1 mRNA; 6.25 μmol/L) [%] | TGM1 mRNA expression promotion rate (TGM1 mRNA; 25 μmol/L) [%] | TGM1 mRNA expression promotion rate (TGM1 mRNA; 100 μmol/L) [%] | inhibition at 250 µM (elastase type III; 250 μmol/L) [%] | inhibition at 500 µM (elastase type III; 500 μmol/L) [%] | inhibition at 1000 µM (elastase type III) [%]
O=C(O)CCc1ccc(O)c(O)c1 [Sample 1, 3,4-Dihydroxyhydrocinnamic acid] | 214.6 | 528.6 | 1617.1 | 3.2 | 6.7 | 8.1
O=C(O)CCc1ccc(O)cc1 [Sample 2, 3-(4-Hydroxyphenyl)propionic acid] | – | – | 160.8 | – | – | 4.2
O=C(O)CCc1ccccc1 [Sample 3, 3-phenylpropionic acid] | – | 218.5 | 174.9 | – | – | 5
